{
  "source": "patent US5792635A",
  "about": "“Method of inhibiting the sodium/proton exchanger NHE3 and method of inhibiting growth by administering squalamine” (priority 1995, dated 1998)",
  "key": {"[1]": {"system": "C. albicans", "assay": "Antibiotic activity, MIC", "format": "cell-based", "conditions": "for MIC: Candida albicans"}, "[2]": {"system": "S. aureus", "assay": "Antibiotic activity, MIC", "format": "cell-based", "conditions": "for MIC: Staphylococcus aureus"}, "[3]": {"system": "E. Coli", "assay": "Antibiotic activity, MIC", "format": "cell-based", "conditions": "for MIC: Escherichia coli"}, "[4]": {"system": "chick embryo", "assay": "Chick embryo diss. assay (Table II)", "format": "in vivo", "description": "Using the chick embryo vitelline capillaries assay, compounds were tested for their ability to induce capillary regression. Each compound was applied in 0.1 ml of 15% Ficol 400 and PBS onto the embryo, and vascular regression was assessed after 60 minutes."}, "[5]": {"system": "Xenopus tadpoles", "assay": "Tadpole assay", "conditions": "Xenopus tadpole assay"}},
  "data": [
    {"smiles": "CC(C)CCC[C@@H](C)[C@H]1CC[C@H]2[C@@H]3CC[C@H]4C[C@H](NCCCN5CCCCN=C5N)CC[C@]4(C)[C@H]3CC[C@]12C", "values": [
      {"measurement": "MIC Values", "setting": "[1]", "result": 32, "unit": "µg/mL"},
      {"measurement": "MIC Values", "setting": "[2]", "result": 2, "unit": "µg/mL"},
      {"measurement": "MIC Values", "setting": "[3]", "result": "> 256", "unit": "µg/mL"}
    ]},
    {"smiles": "CC(COS(=O)(=O)O)C(=O)CC[C@@H](C)[C@H]1CC[C@H]2[C@@H]3[C@H](O)C[C@H]4C[C@@H](NCCCNCCCCN)CC[C@]4(C)[C@H]3CC[C@]12C", "note": "(stereo partly shown)", "values": [
      {"measurement": "MIC", "setting": "[2]", "result": 8, "unit": "µg/mL"}
    ]},
    {"smiles": "C=C(C)C(=O)CCC(C)[C@H]1CCC2C3C(CC[C@@]21C)[C@@]1(C)CC[C@H](NCCCNCCCCN)C[C@@H]1C[C@H]3O", "note": "(stereo partly shown)", "values": [
      {"measurement": "MIC", "setting": "[1]", "result": 4, "unit": "µg/mL"},
      {"measurement": "MIC", "setting": "[2]", "result": 4, "unit": "µg/mL"},
      {"measurement": "MIC", "setting": "[3]", "result": 32, "unit": "µg/mL"}
    ]},
    {"smiles": "CC(C)CCCC(C)[C@H]1CCC2C3C(CC[C@@]21C)[C@@]1(C)CC[C@@H](N)C[C@@H]1C[C@H]3O", "note": "(stereo partly shown)", "values": [
      {"measurement": "MIC", "setting": "[1]", "result": 2, "unit": "µg/mL"},
      {"measurement": "MIC", "setting": "[2]", "result": 2, "unit": "µg/mL"},
      {"measurement": "MIC", "setting": "[3]", "result": "> 256", "unit": "µg/mL"}
    ]},
    {"smiles": "CC(CCC(=O)O)[C@H]1CCC2C3C(CC[C@@]21C)[C@@]1(C)CC[C@@H](NCCN)C[C@H]1C[C@H]3O", "note": "(stereo partly shown)", "values": [
      {"measurement": "MIC", "setting": "[1]", "result": 64, "unit": "µg/mL"},
      {"measurement": "MIC", "setting": "[2]", "result": 32, "unit": "µg/mL"},
      {"measurement": "MIC", "setting": "[3]", "result": 64, "unit": "µg/mL"}
    ]},
    {"smiles": "COC(=O)CCC(C)[C@H]1CCC2C3C[C@@H](O)[C@H]4C[C@@H](NCCN)CC[C@]4(C)C3CC[C@@]21C", "note": "(stereo partly shown)", "values": [
      {"measurement": "MIC", "setting": "[1]", "result": "2 to 4", "unit": "µg/mL"},
      {"measurement": "MIC", "setting": "[2]", "result": 1, "unit": "µg/mL"},
      {"measurement": "MIC", "setting": "[3]", "result": "8 to 16", "unit": "µg/mL"}
    ]},
    {"smiles": "COC(=O)CCC(C)[C@H]1CCC2C3C[C@@H](O)[C@H]4C[C@H](NCCCNCCCCNCCCN)CC[C@]4(C)C3CC[C@@]21C", "note": "(stereo partly shown)", "values": [
      {"measurement": "MIC", "setting": "[1]", "result": 4, "unit": "µg/mL"},
      {"measurement": "MIC", "setting": "[2]", "result": "2 to 4", "unit": "µg/mL"},
      {"measurement": "MIC", "setting": "[3]", "result": 32, "unit": "µg/mL"}
    ]},
    {"smiles": "CC(CCC(=O)O)[C@H]1CCC2C3C[C@@H](O)[C@H]4C[C@@H](NCCCNCCCCNCCCN)CC[C@]4(C)C3CC[C@@]21C", "note": "(stereo partly shown)", "values": [
      {"measurement": "MIC", "setting": "[1]", "result": 4, "unit": "µg/mL"},
      {"measurement": "MIC", "setting": "[2]", "result": 16, "unit": "µg/mL"},
      {"measurement": "MIC", "setting": "[3]", "result": 16, "unit": "µg/mL"}
    ]},
    {"smiles": "CC(C)CCC[C@@H](C)[C@H]1CC[C@H]2[C@@H]3CC[C@H]4C[C@H](NCCCNCCCCNCCCN)CC[C@]4(C)[C@H]3CC[C@]12C", "values": [
      {"measurement": "Minimum Effective Concentration, chick embryo diss. assay", "setting": "[4]", "result": "> 10", "unit": "µg"}
    ]},
    {"smiles": "CC(CCCOS(=O)(=O)O)[C@H]1CCC2C3CC[C@H]4C[C@@H](NCCCNCCCCN)CC[C@]4(C)C3CC[C@@]21C", "note": "(stereo partly shown)", "values": [
      {"measurement": "Minimum Effective Concentration, chick embryo diss. assay", "setting": "[4]", "result": "> 10", "unit": "µg"}
    ]},
    {"smiles": "CC(CCC(=O)O)[C@H]1CCC2C3C(CC[C@@]21C)[C@@]1(C)CC[C@H](NCCCNCCCCN)C[C@@H]1C[C@H]3O", "note": "(stereo partly shown)", "values": [
      {"measurement": "Minimum Effective Concentration, chick embryo diss. assay", "setting": "[4]", "result": "> 10", "unit": "µg"}
    ]},
    {"smiles": "CC(C)CCCC(C)[C@H]1CCC2C3CC[C@H]4C[C@H](NCCCN5CCCCN=C5N)CC[C@]4(C)C3CC[C@@]21C", "note": "(stereo partly shown)", "values": [
      {"measurement": "Minimum Effective Concentration, chick embryo diss. assay", "setting": "[4]", "result": "> 10", "unit": "µg"}
    ]},
    {"smiles": "COC(=O)CCC(C)[C@H]1CCC2C3C(CC[C@@]21C)[C@@]1(C)CCC(NCCCNCCCCNCCCN)C[C@@H]1C[C@H]3O", "note": "(stereo partly shown)", "values": [
      {"measurement": "Minimum Effective Concentration, chick embryo diss. assay", "setting": "[4]", "result": "> 10", "unit": "µg"}
    ]},
    {"smiles": "CC(CCC(CO)(OS(=O)(=O)O)C(C)C)[C@H]1CCC2C3C(CC[C@@]21C)[C@@]1(C)CC[C@H](NCCCNCCCCN)C[C@@H]1C[C@H]3O", "note": "(stereo partly shown)", "values": [
      {"measurement": "Minimum Effective Concentration, chick embryo diss. assay", "setting": "[4]", "result": "> 1", "unit": "µg"}
    ]},
    {"smiles": "CC(CCC(=O)O)[C@H]1CCC2C3C(CC[C@@]21C)[C@@]1(C)CC[C@@H](NCCCNCCCCN)CC1C[C@H]3O", "note": "(single isomer, unassigned)", "values": [
      {"measurement": "Minimum Effective Concentration, chick embryo diss. assay", "setting": "[4]", "result": 0.01, "unit": "µg"}
    ]},
    {"smiles": "CC(C)CCC[C@@H](C)[C@H]1CC[C@H]2[C@@H]3[C@H](O)C[C@H]4C[C@H](NCCCNCCCCN)CC[C@]4(C)[C@H]3CC[C@]12C", "note": "[Compound 370]", "values": [
      {"measurement": "functional similarity in tadpole assay", "setting": "[5]", "result": "pharmacologic activity similar to that seen for FX 3"}
    ]},
    {"smiles": "CC(C)CCC[C@@H](C)[C@H]1CC[C@H]2[C@@H]3[C@H](O)C[C@H]4C[C@@H](NCCCNCCCCN)CC[C@]4(C)[C@H]3CC[C@]12C", "note": "[Compound 371]", "values": [
      {"measurement": "functional similarity in tadpole assay", "setting": "[5]", "result": "effects like those produced by compound 1436"}
    ]},
    {"smiles": "COC(=O)CC[C@@H](C)[C@H]1CC[C@H]2[C@@H]3[C@H](O)C[C@@H]4C[C@H](NCCN)CC[C@]4(C)[C@H]3CC[C@]12C", "note": "[Compound 410]", "values": [
      {"measurement": "functional similarity in tadpole assay", "setting": "[5]", "result": "functionally similar to compound 1437"}
    ]},
    {"smiles": "COC(=O)CC[C@@H](C)[C@H]1CC[C@H]2[C@@H]3CC[C@@H]4C[C@H](NCCN)CC[C@]4(C)[C@H]3C[C@H](O)[C@]12C", "note": "[Compound 416]", "values": [
      {"measurement": "functional similarity in tadpole assay", "setting": "[5]", "result": "functionally similar to compound 1437"}
    ]},
    {"smiles": "COC(=O)CC[C@@H](C)[C@H]1CC[C@H]2[C@@H]3C[C@@H](O)[C@H]4C[C@H](NCCN)CC[C@]4(C)[C@H]3CC[C@]12C", "note": "[Compound 431]", "values": [
      {"measurement": "functional similarity in tadpole assay", "setting": "[5]", "result": "functionally similar to compound 1437"}
    ]},
    {"smiles": "COC(=O)CC[C@@H](C)[C@H]1CC[C@H]2[C@@H]3C[C@@H](O)[C@H]4C[C@@H](NCCN)CC[C@]4(C)[C@H]3CC[C@]12C", "note": "[Compound 432]", "values": [
      {"measurement": "functional similarity in tadpole assay", "setting": "[5]", "result": "functionally similar to compound 1437"}
    ]},
    {"smiles": "C[C@H](CCC(=O)O)[C@H]1CC[C@H]2[C@@H]3C[C@@H](O)[C@H]4C[C@@H](NCCN)CC[C@]4(C)[C@H]3CC[C@]12C", "note": "[Compound 433]", "values": [
      {"measurement": "functional similarity in tadpole assay", "setting": "[5]", "result": "functionally similar to compound 1437"}
    ]},
    {"smiles": "COC(=O)CC[C@@H](C)[C@H]1CC[C@H]2[C@@H]3CC[C@H]4C[C@H](NCCCNCCCCNCCCN)CC[C@]4(C)[C@H]3CC[C@]12C", "note": "[Compound 458]", "values": [
      {"measurement": "functional similarity in tadpole assay", "setting": "[5]", "result": "pharmacologic activity similar to that seen for FX 3"}
    ]}
  ]
}
